Data taken from patent US10300107B2, “Compositions and methods for CaMKII inhibitors and uses thereof” (THE REGENTS OF THE UNIVERSITY OF COLORADO, priority 2007, dated 2019).
Where “and” joins values, the source holds several entries; their conditions need not be identical. Equal values may be shown once. Where no end group is shown, it is not given here.

Columns and labels:
Format in all cases: biochemical
CaMKII = test system: CaMKII
Description: CaMKII activity assays. Standard CaMKII assays were done for 1 min at 30° C. previously described, with 20 nM CaMKII (subunit, not holoenzyme concentration), 50 mM PIPES pH 7.2, 0.1 mg/ml BSA, 10 mM MgCl2, 100 μM [γ-^32P] ATP (˜1 Ci/mmol), 1 mM CaCl2, 1-2 μM CaM, and 30-60 μM AC2 peptide (or syntide2). The reactions were spotted onto Whatman P81 phosphocellulose paper rectangles (˜2×2.5 cm). To remove free radioactivity, the paper rectangles were rinsed and washed for 30 min under agitation in 0.5% phosphoric acid or water. […] Radioactivity of the bound peptides was quantified in a Beckman 6000TA scintillation counter by the Cherenkov method. Any changes of the standard protocol were done as indicated. For assays of the GFP-CaMKIIα mutants, kinase amounts were normalized by GFP fluorescence in the extract, and total protein was adjusted with Cos-7 extracts.

CaMKIV = CaMKIV (Homo sapiens, UniProt Q16566); assay: Kinase panel: CaMKIV; details: 5 μM
Description: (§2) Kinase panels. A panel of different kinases was tested utilizing a kinase profiling service (Upstate Biotechnology).

PKC = PKC (Homo sapiens, UniProt P17252); assay: Kinase panel: PKC; details: 5 μM
Description: as §2

CaMKI = CaMKI (Homo sapiens, UniProt Q14012); assay: CaMKI activity / inhibition
CaMKI, sequence (Q14012 whole entry, species assumed): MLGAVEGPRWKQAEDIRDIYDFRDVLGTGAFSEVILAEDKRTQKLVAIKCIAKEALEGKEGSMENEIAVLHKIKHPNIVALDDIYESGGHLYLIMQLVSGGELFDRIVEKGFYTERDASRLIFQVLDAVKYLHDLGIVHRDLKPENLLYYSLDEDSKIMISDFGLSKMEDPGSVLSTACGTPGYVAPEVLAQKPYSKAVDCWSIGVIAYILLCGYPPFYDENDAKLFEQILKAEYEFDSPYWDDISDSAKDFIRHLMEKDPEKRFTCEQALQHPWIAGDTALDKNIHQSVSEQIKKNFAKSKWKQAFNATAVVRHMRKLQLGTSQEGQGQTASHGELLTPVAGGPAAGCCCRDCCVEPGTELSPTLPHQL
From the text: For curve fit, the Hill coefficient was set as 1.

protein kinase A (PKA) = protein kinase A (PKA) (Homo sapiens, UniProt P17612); assay: Kinase panel for CN19o: PKA; details: 5 μM
Description: (§1) Additionally, CN19o was tested for effects on a panel of other kinases (see for example FIG. 25B). This panel included other CaM kinase family members (CaMKIV, DAPK1, AMPK) and other basophilic multifunctional kinases (protein kinase A (PKA) and protein kinase C (PKC)). […] Thus, CN19o (SEQ ID NO: 24) inhibits CaMKII both with remarkable potency and high selectivity.

DAPK1 = DAPK1 (Homo sapiens, UniProt P53355); assay: Kinase panel for CN19o: DAPK1; details: 5 μM
DAPK1, sequence (P53355 whole entry, species assumed): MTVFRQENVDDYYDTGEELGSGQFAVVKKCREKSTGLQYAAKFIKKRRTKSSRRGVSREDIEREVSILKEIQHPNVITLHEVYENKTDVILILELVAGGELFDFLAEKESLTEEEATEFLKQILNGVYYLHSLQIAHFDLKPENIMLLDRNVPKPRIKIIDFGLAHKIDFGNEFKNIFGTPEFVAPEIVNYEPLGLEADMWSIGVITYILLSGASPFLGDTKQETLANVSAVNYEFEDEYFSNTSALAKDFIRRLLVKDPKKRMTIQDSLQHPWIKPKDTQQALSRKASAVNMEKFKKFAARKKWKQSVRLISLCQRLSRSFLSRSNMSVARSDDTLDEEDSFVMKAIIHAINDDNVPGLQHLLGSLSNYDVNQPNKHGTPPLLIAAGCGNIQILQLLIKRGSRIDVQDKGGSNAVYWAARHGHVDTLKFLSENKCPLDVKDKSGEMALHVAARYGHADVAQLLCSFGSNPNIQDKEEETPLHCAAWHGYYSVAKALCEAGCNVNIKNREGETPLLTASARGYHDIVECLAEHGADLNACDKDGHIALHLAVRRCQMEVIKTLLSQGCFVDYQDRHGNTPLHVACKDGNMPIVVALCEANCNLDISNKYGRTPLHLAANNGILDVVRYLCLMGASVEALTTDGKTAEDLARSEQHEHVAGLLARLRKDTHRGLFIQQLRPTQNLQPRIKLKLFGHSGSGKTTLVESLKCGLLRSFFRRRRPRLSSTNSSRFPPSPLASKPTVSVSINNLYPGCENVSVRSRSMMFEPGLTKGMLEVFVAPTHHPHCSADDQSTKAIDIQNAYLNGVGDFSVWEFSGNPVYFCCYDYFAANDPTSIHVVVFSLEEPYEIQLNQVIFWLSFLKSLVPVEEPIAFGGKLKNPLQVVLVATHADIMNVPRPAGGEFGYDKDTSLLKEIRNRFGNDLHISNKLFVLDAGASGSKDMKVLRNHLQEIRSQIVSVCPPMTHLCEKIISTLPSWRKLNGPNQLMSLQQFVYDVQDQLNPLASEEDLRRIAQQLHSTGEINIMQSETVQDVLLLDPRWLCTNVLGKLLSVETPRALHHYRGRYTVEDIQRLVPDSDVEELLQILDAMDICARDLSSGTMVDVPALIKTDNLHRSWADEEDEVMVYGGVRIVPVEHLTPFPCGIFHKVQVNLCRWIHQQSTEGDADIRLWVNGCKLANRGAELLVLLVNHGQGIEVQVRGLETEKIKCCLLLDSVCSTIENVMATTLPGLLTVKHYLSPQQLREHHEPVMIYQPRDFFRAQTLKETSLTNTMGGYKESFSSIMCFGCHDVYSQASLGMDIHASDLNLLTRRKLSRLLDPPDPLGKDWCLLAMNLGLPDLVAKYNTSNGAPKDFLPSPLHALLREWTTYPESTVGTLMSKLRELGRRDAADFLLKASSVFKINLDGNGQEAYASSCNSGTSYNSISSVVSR
Description: as §1

AMPK = assay: Kinase panel for CN19o: AMPK; details: 5 μM
Description: as §1

Sequence: KRAPKLGQIGRQKAVDIED [CN19o]
- effect on CaMKII activity (CaMKII; 5 nM): blocked CaMKII activity nearly completely
- effect of further mutation on potency of CaMKII inhibition (CaMKII; CN19a2v background): increased potency even further
- IC50 (CaMKII; CaMKII concentration lowered to 0.1 nM, read-out: IC50 of CaMKII inhibition): ~0.75 nM and 0.75 nM and < 1 nM
- effect on kinase activity of CaMKIV (CaMKIV): did not significantly affect
- effect on kinase activity of PKC (PKC): did not significantly affect
- IC50 (CaMKI): ~38000 nM
- effect on kinase activity of CaMKI (CaMKI; 5 μM): did not significantly affect
- selectivity for CaMKII vs CaMKI (CaMKI; ratio of IC50 values): about 50,000 fold
- effect on kinase activity of PKA (protein kinase A (PKA)): did not significantly affect
- effect on kinase activity of DAPK1 (DAPK1): did not significantly affect
- effect on kinase activity of AMPK (AMPK): did not significantly affect
